Assay results as given in patent publication US5874402A, “Use of cell membrane permeants in the treatment of cellular proliferative diseases” (Matrix Pharmaceutical, Inc., priority 1997, dated 1999).

Experiments:
RIF-1 tumors = assay: RIF-1 murine tumor growth delay after intratumoral injection (days to 4× tumor volume; T/C); format: in vivo, murine (C3H mice); set-up: key to Treated (Table 7 column): days for tumors to reach 4x baseline volume
Method: When the introduced tumors reached 100 mm^3, the mice were ready for testing. During the course of the experiments, the treated and control tumors were measured three times per week by Vernier calipers and the tumor volumes were calculated using the following formula: […]
where D1 -D3 are tumor diameters in millimeters. The number of days for tumors to reach four times (4×) their baseline volume was used as a parameter of treatment effectiveness. Therefore, a longer delay in tumor growth meant greater antitumor efficacy.

C3H mice = assay: Lethal toxicity (deaths) after intratumoral injection in RIF-1 tumor-bearing C3H mice; format: in vivo
Method: For each of the following experiments, transplantable murine fibrosarcoma RIF-1 tumors were grown intradermally in the flank of 3-7 month old female C3H mice (2×10^5 cells were injected). When the introduced tumors reached 100 mm^3, the mice were ready for testing. During the course of the experiments, the treated and control tumors were measured three times per week by Vernier calipers and the tumor volumes were calculated using the following formula: […]

ovarian cancer cells = conditions: in vitro; cells first exposed to digitonin; cited from earlier work
[1] = Table 6, agent 40 mg/kg (BFA: DMSO as solvent), saponin 10 mg/kg 1 hr prior where combined
[2] = Table 7, dose printed 10, 4 mg/kg (saponin, vinblastine)

C[C@H]1CCC/C=C/[C@@H]2C[C@H](O)C[C@H]2[C@H](O)/C=C/C(=O)O1 [Brefeldin A(BFA), Brefeldin A]
T/C (ratio of tumor growth delay of treated tumors to untreated controls) (RIF-1 tumors; [1]): 2.6

C=C1O[C@@](CO)(n2cnc3c(N)ncnc32)[C@H](O)[C@@H]1O [Decoyinine]
T/C (ratio of tumor growth delay of treated tumors to untreated controls) (RIF-1 tumors; [1]): 1.0

C[C@H]1O[C@@H](O[C@H]2[C@@H](O)C[C@H](O[C@H]3[C@@H](O)C[C@H](O[C@H]4CC[C@@]5(C)[C@H](CC[C@@H]6[C@@H]5CC[C@]5(C)[C@@H](C7=CC(=O)OC7)CC[C@]65O)C4)O[C@@H]3C)O[C@@H]2C)C[C@H](O)[C@@H]1O [Digitoxin]
T/C (ratio of tumor growth delay of treated tumors to untreated controls) (RIF-1 tumors; Table 5, permeant 40 mg/kg, no TNF): 0.99

O=c1c(-c2ccc(O)cc2)coc2cc(O)cc(O)c12 [Genistein]
T/C (ratio of tumor growth delay of treated tumors to untreated controls) (RIF-1 tumors; Table 6, agent 80 mg/kg, saponin 10 mg/kg 1 hr prior where combined): 1.1

Cc1ccc(C(=O)Nc2ccc(S(=O)(=O)O)c3cc(S(=O)(=O)O)cc(S(=O)(=O)O)c23)cc1NC(=O)c1cccc(NC(=O)Nc2cccc(C(=O)Nc3cc(C(=O)Nc4ccc(S(=O)(=O)O)c5cc(S(=O)(=O)O)cc(S(=O)(=O)O)c45)ccc3C)c2)c1 [Suramin]
T/C (ratio of tumor growth delay of treated tumors to untreated controls) (RIF-1 tumors; Table 6, agent 20 mg/kg, saponin 10 mg/kg 1 hr prior where combined): 1.0

N#C/C(=C\c1ccc(O)c(O)c1)C(N)=S [Tyrphostin 47]
T/C (ratio of tumor growth delay of treated tumors to untreated controls) (RIF-1 tumors; Table 6, agent 60 mg/kg, EtOH as solvent, saponin 10 mg/kg 1 hr prior where combined): 1.1

CC[C@]1(O)C[C@@H]2CN(CCc3c([nH]c4ccccc34)[C@@](C(=O)OC)(c3cc4c(cc3OC)N(C)[C@H]3[C@@](O)(C(=O)OC)[C@H](OC(C)=O)[C@]5(CC)C=CCN6CC[C@]43[C@@H]65)C2)C1 [Vinblastine(VLB), Vinblastine]
Treated (Table 7 column) (RIF-1 tumors; [2]): 14.1 ± 1.57
Efficacy of vinblastine, in words (RIF-1 tumors; in conjunction with saponin (Table 7)): greatly enhances the efficacy of the vinblastine
Efficacy of vinblastine, in words (RIF-1 tumors; with saponin and collagen gel matrix (Table 7)): further enhances the efficacy of vinblastine
Toxicity Deaths/# mice (C3H mice; [2]): 0/5
Lethal toxic side effects, in words (C3H mice; vinblastine with saponin and collagen gel matrix (Table 7)): decreasing the observed lethal toxic side effects

N.N.[Cl][Pt][Cl] [cisplatin]
Uptake of cisplatin by ovarian cancer cells (ovarian cancer cells): enhanced uptake

Lysolecithin(type 1)
T/C (ratio of tumor growth delay of treated tumors to untreated controls) (RIF-1 tumors; Table 5, permeant 10 mg/kg, no TNF): 1.27

Neomycin sulfate [Neomycin sulfate (NS)]
T/C (ratio of tumor growth delay of treated tumors to untreated controls) (RIF-1 tumors; [1]): 0.7
